Experimental data: patent US9789096B2, “Methods and compositions for selective and targeted cancer therapy” (Board of Regents of the University of Texas System, priority 2013, dated 2017)
pIC50: −log10 of the molar value. Read-outs that look alike come from different tables or passages of the source.

Experiments:
H2122 = experiment: Cell viability dose-response, H2122; type: cell-based, human; settings: for IC50: NCI-H2122, Tables 3 and 4, read-out: IC50 (uM) vs indicated non-small cell lung cancer cell line H2122; for AC50: NCI-H2122, Table 8
Description: (§1) FIG. 6A. […] Cell viability is plotted vs. compound concentration. Compound was added to cells plated at 15% confluence in 96-well plates in RPMI-1640 media supplemented with 5% Fetal Bovine Serum and 2 mM L-Glutamine. After 4 days of incubation, ATP levels were measured using Cell Titer Glo (Promega). Data are presented as the average of 2 replicates ±SEM.
(§2) Selectivity may be measured by the half maximal inhibitory concentration (IC50), which, as used herein, is a measure of the effectiveness of a compound in killing cells. This quantitative measure indicates how much of a particular compound is needed to kill a particular cell population by half (e.g., as indicated by the amount of ATP). […] The IC50 can be determined by constructing a dose-response curve. The lower the IC50, the higher the potency, and the greater the difference between IC50 values for different cell lines (e.g., sensitive lines vs. insensitive lines, and sensitive lines vs. normal lines) the greater the selectivity. […]
(§3) With this information, we synthesized and tested a series of small molecules derived in conception from the oxalamide and chromone scaffold including N-acyl ureas, as shown in Tables 6-8. Each compound was tested in a 12-point dose-response study starting at 50 micromolar and decreasing in 3-fold increments to sub-nanomolar concentrations, in duplicate. Additionally, one or more additional cell line was tested in the same way.

H1819 = experiment: Cell viability dose-response, H1819; type: cell-based, human; settings: for pIC50: 3-fold increments, in duplicate, read-out: toxicity data, H1819; for AC50: NCI-H1819, Table 8; for IC50: NCI-H1819, Tables 3 and 4, read-out: IC50 (uM) vs indicated non-small cell lung cancer cell line H1819
Description: as §1, §2, §3

[1] = Homo sapiens, NCI-H1819, 12-point dose-response starting at 50 micromolar
[2] = Homo sapiens, NCI-H2122, 12-point dose-response starting at 50 micromolar, 3-fold increments, in duplicate, read-out: toxicity data, H2122
[3] = 12-point dose-response starting at 50 micromolar, 3-fold increments, in duplicate, read-out: toxicity data, H2122
[4] = Homo sapiens, 12-point dose-response starting at 50 micromolar
[5] = Homo sapiens, NCI-H2122, Table 9, competitor, read-out: IC50 to H2122 cells

Compound	pIC50 (H1819; [1])	pIC50 (H2122; [2])	other results
COc1ccc2nc(NC(=O)c3ccc(C(O)c4ccncc4)cc3)sc2c1 (centres unmarked) [SW203735]			IC50 (H2122; Homo sapiens): 0.036 µM
COc1ccc(CCNC(=O)C(=O)Nc2ccc(Cl)cn2)cc1 [SW208123-1-A]	4.33	6.46	
COc1ccc(CCNC(=O)C(=O)Nc2cc(Cl)cc(Cl)c2)cc1 [SW206891-2]			pIC50 (H1819; 12-point dose-response starting at 50 micromolar): ≤ 4.31; pIC50 (H2122; [3]): ≤ 4.31
COc1cccc(CCNC(=O)C(=O)Nc2ccc(Cl)cc2)c1 [SW206964-1]	≤ 4.31	≤ 4.31	
COc1ccc(CCNC(=O)c2ccc3ccc(Br)cc3n2)cc1 [SW208057-1-A]	4.46	≤ 4.31	
O=c1c(Cc2ccc(Br)cc2)coc2cc(OCc3cnn(-c4ccccc4)c3)ccc12 [SW209191-1]			AC50 (H1819; [4]): 49.5 µM; AC50 (H2122; [4]): 0.087 µM
COc1ccc(CCNC(=O)C(=O)Nc2ccc(Cl)nc2)cc1 [SW208127-1-A]	≤ 4.31	6.36	
COc1ccc(CCNC(=O)C(=O)Nc2cc(Cl)cc(C(F)(F)F)c2)cc1 [SW206869-1-A]	≤ 4.31	≤ 4.31	
COc1ccc(CCNC(=O)C(=O)Oc2ccc(Cl)cc2)cc1 [SW208148-1-A]	≤ 4.31	5.14	
Cc1ccc(Cc2coc3cc(OCc4cnn(-c5ccccc5)c4)ccc3c2=O)cc1 [SW209190-1]			AC50 (H1819; [4]): 49.5 µM; AC50 (H2122; [4]): 0.092 µM
COc1ccc(CNC(=O)COc2ccc(Cl)cc2)cc1 [SW208040-1-A]	≤ 4.31	≤ 4.31	
COc1ccc(CCNC(=O)C(=O)Nc2ccc(Cl)cc2C)cc1 [SW206926-1]	≤ 4.31	≤ 4.31	
COc1ccc(CCNC(=O)C(=O)Nc2cc(Cl)c(F)c(Cl)c2)cc1 [SW206889-1-A]	≤ 4.31	≤ 4.31	
O=c1c(Cc2ccccc2F)coc2cc(OCc3cnn(-c4ccccc4)c3)ccc12 [SW209189-1]			AC50 (H1819; [4]): 49.5 µM; AC50 (H2122; [4]): 0.08 µM
COc1ccc(CCNC(=O)C(=O)NC2CCC2)cc1 [SW208032-1-A]	≤ 4.31	≤ 4.31	
COc1ccc(CCNC(=O)NCc2ccccc2)cc1 [SW208043-2-A]	≤ 4.31	≤ 4.31	
COc1ccc(CCNC(=O)C(=O)Nc2ccc(F)cc2Cl)cc1 [SW206863-1-a]	≤ 4.31	≤ 4.31	
COc1ccc(CCNC(=O)C(=O)Nc2ccc(Cl)cc2F)cc1 [SW206951-1]	≤ 4.31	≤ 4.31	
COc1ccc(CCNC(=O)C(=O)Nc2ccc(Br)cn2)cc1 [SW208128-1-A]	≤ 4.31	6.54	
COc1ccc2nc(NC(=O)c3ccc(C(O)c4ccccc4)cc3)sc2c1 (centres unmarked) [SW207003]			IC50 (H2122; Homo sapiens): 0.006 µM
COc1ccc(CCNC(=O)C(=O)Nc2cccc(F)n2)cc1 [SW209136-1-A]	≤ 4.31	≤ 4.31	
O=c1c(Cc2ccccc2C(F)(F)F)coc2cc(OCc3cnn(-c4ccccc4)c3)ccc12 [SW209192-1]			AC50 (H1819; [4]): 49.5 µM; AC50 (H2122; [4]): 0.028 µM

Compound	pIC50 (H1819; [1])	pIC50 (H2122; [2])	other results
COc1ccc(CCNC(=O)C(=O)Nc2cncc(Cl)c2)cc1 [SW208139-1-A]	≤ 4.31	5.23	
CCCOc1ccc2nc(NC(=O)c3ccc(C(=O)c4ccccc4)cc3)sc2c1 [SW208186]			IC50 (H1819; Homo sapiens): 13 µM; IC50 (H2122; Homo sapiens): 0.107 µM
COc1ccc2nc(NS(=O)(=O)c3ccc4c(c3)OCCO4)sc2c1 [SW202748]			IC50 (H1819; Homo sapiens): 69 µM
COc1ccc(CCNC(=O)C(=O)Nc2ccc(Cl)c(C)c2)cc1 [SW206974-1]	≤ 4.31	6.16	
COc1ccc(CCNC(=O)C(=O)Nc2cnccn2)cc1 [SW208137-1-A]	≤ 4.31	≤ 4.31	
COc1ccc(C(=O)c2ccc(NC(=O)C(=O)NCCc3ccc(O)cc3)cc2)cc1 [SW208117-1-A]	4.81	7.51	pIC50 (H2122; [5]): 7.61
COc1ccc(CCNC(=O)C(=O)Nc2cc(OC)ccc2Cl)cc1 [SW206870-1-A]	≤ 4.31	≤ 4.31	
COc1ccc(CCNC(=O)C(=O)NN2CCCCC2)cc1 [SW208129-1-A]	≤ 4.31	≤ 4.31	
COc1ccc2nc(NC(=O)c3ccc([C@H](N)c4ccccc4)cc3)sc2c1 [SW208110]			IC50 (H1819; Homo sapiens): 5.97 µM; IC50 (H2122; Homo sapiens): 0.012 µM
COc1ccc(CCNC(=O)C(=O)Nc2cc(C)cc(F)c2)cc1 [SW206881-1-A]	≤ 4.31	5.00	
COc1ccc(CCNC(=O)C(=O)Nc2ccc(C(=O)c3ccc(O)cc3)cc2)cc1 [SW208141-1-A]	≤ 4.31	≤ 4.31	
COc1ccc(CCNC(=O)C(=O)Nc2cc(Cl)cc(Cl)c2)cc1 [SW206891-1-A]	4.36	≤ 4.31	
COc1ccc(CCNC(=O)C(=O)Nc2ccc(C)cc2F)cc1 [SW206883-1-A]	≤ 4.31	6.14	pIC50 (H2122; [5]): 6.30
COc1ccc(Nc2ccc(C(=O)Nc3nc4ccc(OC)cc4s3)cc2)cc1 [SW203671]			IC50 (H2122; Homo sapiens): 0.314 µM
COc1ccc(CCNC(=O)C(=O)Nc2cccnc2C)cc1 [SW208143-1-A]	≤ 4.31	≤ 4.31	
COc1ccc(CCNC(=O)C(=O)Nc2cc(C)ccc2Cl)cc1 [SW206867-1-A]	≤ 4.31	≤ 4.31	
COc1ccc(CCNC(=O)C(=O)Nc2cccc(Br)c2)cc1 [SW027952-2-A]	≤ 4.31		pIC50 (H2122; [3]): 5.51
COc1ccc(CCNC(=O)C(=O)Nc2cc(F)ccc2F)cc1 [SW206884-1-A]	≤ 4.31	≤ 4.31	
COc1ccc(CNC(=O)NCc2ccccc2)cc1 [SW208047-1-A]	≤ 4.31	≤ 4.31	
COc1ccc(CCNC(=O)c2ccc3ccccc3n2)cc1 [SW208052-1-A]	≤ 4.31	≤ 4.31	
COc1ccc(CCNC(=O)C(=O)Nc2cc(F)ccc2Cl)cc1 [SW206862-1-A]	≤ 4.31	≤ 4.31	
COc1ccc(CCNC(=O)C(=O)Nc2c(C)cccc2Cl)cc1 [SW206868-1-A]	≤ 4.31	≤ 4.31	

Compound	pIC50 (H1819; [1])	pIC50 (H2122; [2])	other results
COc1ccc(CCNC(=O)c2nc3ccccc3c(=O)[nH]2)cc1 [SW208063-1-A]	≤ 4.31	≤ 4.31	
O=C(NCCc1cccc(Cl)c1)C(=O)Nc1ccc(Cl)cc1 [SW208037-1-A]	≤ 4.31	≤ 4.31	
COc1ccc(CCNC(=O)C(=O)Nc2cc(F)ccc2C)cc1 [SW206879-1-A]	≤ 4.31	≤ 4.31	
COc1ccc(CCNC(=O)c2ccc3ccccc3c2O)cc1 [SW208124-1-A]	4.47	4.44	
COc1ccc(CCNC(=O)c2cnc3ccccc3n2)cc1 [SW208051-1-A]	≤ 4.31	≤ 4.31	
COc1ccc(CCNC(=O)C(=O)Nc2cc(Cl)ccc2C)cc1 [SW206866-1-A]	≤ 4.31	≤ 4.31	
COc1ccc(CCNC(=O)C(=O)Nc2ccc(Cl)c(C(F)(F)F)c2)cc1 [SW206962-1]	≤ 4.31	5.85	
COc1ccc(CCNC(=O)C(=O)Nc2cc(F)cc(Cl)c2)cc1 [SW206861-1-A]	4.35	≤ 4.31	
C#CCOc1ccc(C(=O)c2ccc(NC(=O)C(=O)NCCc3ccc(OC)cc3)cc2)cc1 [SW208108-1-A]	≤ 4.31	7.55	
COc1ccc(CCNC(=O)C(=O)Nc2ccc(Cl)c(C#N)c2)cc1 [SW206959-1]	≤ 4.31	6.40	pIC50 (H2122; [5]): 6.74
COc1ccc2nc(NC(=O)c3ccc(C(=O)N4CCOCC4)cc3)sc2c1 [SW203731]			IC50 (H2122; Homo sapiens): 2.28 µM
COc1ccc2nc(NC(=O)c3ccc(C(=O)c4ccccn4)cc3)sc2c1 [SW203727]			IC50 (H2122; Homo sapiens): 0.016 µM
COc1ccc2nc(NC(=O)c3ccc(N=[N+]=[N-])cc3)sc2c1 [SW203728]			IC50 (H2122; Homo sapiens): 0.12 µM
COc1ccc2nc(NC(=O)c3ccc(C(=O)NCc4ccccc4)cc3)sc2c1 [SW203732]			IC50 (H2122; Homo sapiens): 0.013 µM
C#CCOCCOCCOCCOCCOc1ccc2nc(NC(=O)c3ccc(C(=O)c4ccccc4)cc3)sc2c1 [SW203734]			IC50 (H2122; Homo sapiens): 0.939 µM
COc1ccc2nc(NC(=O)c3ccc(C(=O)c4cccnc4)cc3)sc2c1 [SW203733]			IC50 (H2122; Homo sapiens): 0.017 µM
COc1ccc2nc(NC(=O)c3ccc(C(O)c4ccccn4)cc3)sc2c1 (centres unmarked) [SW203726]			IC50 (H2122; Homo sapiens): 0.029 µM
C#CCOc1ccc(CCNC(=O)C(=O)Nc2ccc(C(=O)c3ccccc3)cc2)cc1 [SW207038]			pIC50 (H2122; Homo sapiens, NCI-H2122, cell prints its own unit, 12-point dose-response starting at 50 micromolar, read-out: toxicity data, H2122): < 6.00
C#CCOc1ccc2nc(NC(=O)c3ccc(C(=O)c4ccccc4)cc3)sc2c1 [SW202868]			IC50 (H2122; Homo sapiens): 0.005 µM
COc1ccc2nc(NC(=O)c3ccc(C(=O)N4CCN(C)CC4)cc3)sc2c1 [SW203669]			IC50 (H2122; Homo sapiens): ≥ 49.5 µM
COc1ccc2nc(NC(=O)c3ccc(Nc4ccccc4)cc3)sc2c1 [SW203670]			IC50 (H2122; Homo sapiens): 0.108 µM
COc1ccc2nc(NC(=O)c3ccc(C(=O)N4CCCCC4)cc3)sc2c1 [SW203730]			IC50 (H2122; Homo sapiens): 0.845 µM
